Consider two compounds from ChEMBL document CHEMBL5036347, “Design of the naphthyl-diarylpyrimidines as potent non-nucleoside reverse transcriptase inhibitors (NNRTIs) via structure-based extension into the entrance channel” (Eur J Med Chem, 2021).

The nature of data set [1]: Resistance fold, ratio of EC50 for HIV1 harboring reverse transcriptase Y188L mutant […] to EC50 for wild type HIV1 […]. Type of data set: functional.
Data set [2] in a line: Resistance fold, ratio of EC50 for HIV1 harboring reverse transcriptase Y181C mutant […] to EC50 for wild type HIV1 […]. It is filed as functional.
A short description of data set [3]: Resistance fold, ratio of EC50 for HIV1 harboring reverse transcriptase K103N/Y181C double mutant […] to EC50 for wild type HIV1 […]. It is filed as functional.
For another data set, the system named is MT4. Description: (§1) Cytotoxicity against human MT4 cells assessed as reduction in cell viability incubated for 5 days by MTT assay. It is filed as cell-based. The note with it: Homo sapiens, MT4, 120 h.
In data set [4] the test system is Human immunodeficiency virus 1. Nature of the data set: Antiviral activity against HIV1 harboring reverse transcriptase K103N/Y181C double mutant infected in human MT4 cells assessed as protection against virus-induced cytopathic effect incubated for 5 days by MTT assay. Type of data set: functional, organism-based. The note with it: Human immunodeficiency virus 1, MT4, 120 h.

The nature of data set [5]: Selectivity index, ratio of CC50 for cytotoxicity against human MT4 cells to EC50 of Anti-HIV activity against HIV-1 IIIB infected in human MT4. It is filed as toxicity, cell-based. The settings on record: read-out: Selectivity Index.
The subject of data set [6] is Human immunodeficiency virus 1. Nature of the data set: Anti-HIV activity against HIV-1 IIIB infected in human MT4 cells assessed as reduction in virus-induced cytopathic effect incubated for 5 days by MTT assay. The settings on record: Human immunodeficiency virus 1, IIIB, MT4, 120 h. It is filed as functional, organism-based. (In general: Damage to the host cells serves as the signal in cytopathic effect assays.)

Data set [7] in a line: Resistance fold, ratio of EC50 for HIV1 harboring reverse transcriptase K103N mutant […] to EC50 for wild type HIV1 […]. Type of data set: functional.
Data set [8] has as its system Human immunodeficiency virus 2. Description: Anti-HIV activity against HIV2 ROD infected in human MT4 cells assessed as reduction in virus-induced cytopathic effect incubated for 5 days by MTT assay. It is filed as functional, organism-based. The settings on record: Human immunodeficiency virus 2, ROD, MT4, 120 h.
A short description of data set [9]: Resistance fold, ratio of EC50 for HIV1 harboring reverse transcriptase L100I mutant […] to EC50 for wild type HIV1 […]. It is filed as functional.
For data set [10], the system named is Human immunodeficiency virus 1. Nature of the data set: Antiviral activity against HIV1 harboring reverse transcriptase E138K mutant infected in human MT4 cells assessed as protection against virus-induced cytopathic effect incubated for 5 days by MTT assay. It is filed as functional, organism-based. The note with it: Human immunodeficiency virus 1, MT4, 120 h.

The nature of data set [11]: Resistance fold, ratio of EC50 for HIV1 harboring reverse transcriptase E138K mutant […] to EC50 for wild type HIV1 […]. It is filed as functional.
For data set [12], the system named is Human immunodeficiency virus 1. Nature of the data set: Antiviral activity against HIV1 harboring reverse transcriptase K103N mutant infected in human MT4 cells assessed as protection against virus-induced cytopathic effect incubated for 5 days by MTT assay. It is filed as functional, organism-based. The note with it: Human immunodeficiency virus 1, MT4, 120 h.

The target of data set [13] is Human immunodeficiency virus type 1 reverse transcriptase (Human immunodeficiency virus 1, UniProt Q72547). Description: Inhibition of wild type HIV1 reverse transcriptase using oligo(dT)16 as primer measured after 40 mins by picogreen-dye based spectrofluorimetric analysis.
In data set [14] the test system is Human immunodeficiency virus 1. Nature of the data set: Antiviral activity against HIV1 harboring reverse transcriptase Y181C mutant infected in human MT4 cells assessed as protection against virus-induced cytopathic effect incubated for 5 days by MTT assay. Type of data set: functional, organism-based. The note with it: Human immunodeficiency virus 1, MT4, 120 h.

Data set [15] relates to Human immunodeficiency virus 1. Nature of the data set: Antiviral activity against HIV1 harboring reverse transcriptase Y188L mutant infected in human MT4 cells assessed as protection against virus-induced cytopathic effect incubated for 5 days by MTT assay. Type of data set: functional, organism-based. The note with it: Human immunodeficiency virus 1, MT4, 120 h.
Data set [16] in a line: Resistance fold, ratio of EC50 for HIV1 harboring reverse transcriptase F227L/V106A double mutant […] to EC50 for wild type HIV1 […]. Type of data set: functional.
Data set [17] relates to Human immunodeficiency virus 1. Nature of the data set: Antiviral activity against HIV1 harboring reverse transcriptase F227L/V106A mutant infected in human MT4 cells assessed as protection against virus-induced cytopathic effect incubated for 5 days by MTT assay. The settings on record: Human immunodeficiency virus 1, MT4, 120 h. Type of data set: functional, organism-based.

Data set [18] concerns Human immunodeficiency virus 1. Description: Antiviral activity against HIV1 harboring reverse transcriptase L100I mutant infected in human MT4 cells assessed as protection against virus-induced cytopathic effect incubated for 5 days by MTT assay. It is filed as functional, organism-based. The settings on record: Human immunodeficiency virus 1, MT4, 120 h.
Data set [19] concerns the target Human immunodeficiency virus type 1 reverse transcriptase (Human immunodeficiency virus 1, UniProt Q72547, K103N). Nature of the data set: Inhibition of HIV1 reverse transcriptase K103N mutant using oligo(dT)16 as primer measured after 40 mins by picogreen-dye based spectrofluorimetric analysis.
For data set [20], the target named is Human immunodeficiency virus type 1 reverse transcriptase (Human immunodeficiency virus 1, UniProt Q72547, Y188L). Nature of the data set: Inhibition of HIV1 reverse transcriptase Y188L mutant using oligo(dT)16 as primer measured after 40 mins by picogreen-dye based spectrofluorimetric analysis.
Data set [21] can be described thus: Water solubility of compound at pH 7 at 0.1 to 10 mg by HPLC-UV analysis. Type of data set: physicochemical. The note with it: dose 0.1-10 mg.
The target in data set [22] is Human immunodeficiency virus type 1 reverse transcriptase (Human immunodeficiency virus 1, UniProt Q72547, F227L/V106A). Description: Inhibition of HIV1 reverse transcriptase F227L/V106A double mutant using oligo(dT)16 as primer measured after 40 mins by picogreen-dye based spectrofluorimetric analysis.
Data set [23] is described as follows: as §1. It is filed as cell-based. The note with it: human, MT4 cells; time 5 day.
Data set [24] concerns the target Human immunodeficiency virus type 1 reverse transcriptase (Human immunodeficiency virus 1, UniProt Q72547, E138K). Description: Inhibition of HIV1 reverse transcriptase E138K mutant using oligo(dT)16 as primer measured after 40 mins by picogreen-dye based spectrofluorimetric analysis.
Data set [25] addresses Human immunodeficiency virus type 1 reverse transcriptase (Human immunodeficiency virus 1, UniProt Q72547, K103N/Y181C). Description: Inhibition of HIV1 reverse transcriptase K103N/Y181C double mutant using oligo(dT)16 as primer measured after 40 mins by picogreen-dye based spectrofluorimetric analysis.
The nature of data set [26]: Water solubility of compound at pH 2 at 0.1 to 10 mg by HPLC-UV analysis. It is filed as physicochemical. The settings on record: dose 0.1-10 mg.
Data set [27] is described as follows: Water solubility of compound at pH 7.4 at 0.1 to 10 mg by HPLC-UV analysis. It is filed as physicochemical. The settings on record: dose 0.1-10 mg.
The target of data set [28] is Human immunodeficiency virus type 1 reverse transcriptase (Human immunodeficiency virus 1, UniProt Q72547, L100I). Nature of the data set: Inhibition of HIV1 reverse transcriptase L100I mutant using oligo(dT)16 as primer measured after 40 mins by picogreen-dye based spectrofluorimetric analysis.
Data set [29] has as its target Human immunodeficiency virus type 1 reverse transcriptase (Human immunodeficiency virus 1, UniProt Q72547, Y181C). Nature of the data set: Inhibition of HIV1 reverse transcriptase Y181C mutant using oligo(dT)16 as primer measured after 40 mins by picogreen-dye based spectrofluorimetric analysis.

Values after ≈ are worked out from the molar mass of the structure shown. Some results are limits rather than exact numbers.

As a reminder, the IC50 is the concentration that gives 50% inhibition. The term EC50 denotes the concentration at which the effect is half-maximal. On to `CCC(C)CNc1cc(Oc2c(OC)cc3cc(C#N)ccc3c2OC)nc(Nc2ccc(C#N)cc2)n1` (stereo not drawn), for which the “Ratio EC50” value is 89 in data set [1]; 10 in data set [2]; 216 in [3]; 1 in [7]; 36 in data set [9]; 4 in [11]. In addition, the “Ratio EC50” value in data set [16] is listed as >14450. Besides, the IC50 in the data set on MT4 is > 125 µM; in [13], 0.27 µM. The EC50 was 14.9 µM in data set [4]; 0.069 µM in [6]; > 1000 µM in [8]; 0.28 µM in data set [10]; 0.06 µM in data set [12]; 0.68 µM in [14]. Further, the EC50 is 6.14 µM in data set [15], > 1000 µM in data set [17] and 2.48 µM in data set [18]. Further, the selectivity ratio in [5] was > 3550.
In general, solubility refers to the dissolved amount per volume that the medium holds. A high value points to much dissolved substance. In general, CC50 refers to the concentration that lowers cell viability or growth by half. As to `COc1cc2cc(C#N)ccc2c(OC)c1Oc1cc(N2CCC(O)C2)nc(Nc2ccc(C#N)cc2)n1` (stereo not drawn), the IC50 stood at 0.24 µM in data set [19]; 1.06 µM in [20]; 0.88 µM in data set [22]; 0.15 µM in data set [24]; 0.45 µM in data set [25]; 0.49 µM in data set [28]. The IC50 in data set [13] came out at 0.1 µM; in data set [29], 0.18 µM. Also, the “Ratio EC50” value in data set [1] stood at 38; in data set [2], 4; in data set [3], 76; in data set [7] it was 2; in [9] it was 11; in data set [11] it was 4. The “Ratio EC50” value in data set [16] worked out at 124. The results for the solubility in [21], in data set [26] and in [27] were < 1 µg/mL, 1 µg/mL (≈ 1.97 µM) and 2 µg/mL (≈ 3.93 µM), respectively. Besides, the CC50 at 120 h in [23] was > 125 µM. Further, the EC50 in [4] stood at 0.81 µM; in data set [6] it was 0.011 µM; in data set [8], 9.12 µM; in data set [10], 0.045 µM; in data set [12], 0.019 µM; in [14], 0.048 µM. Besides, the concentration giving a half-maximal response (EC50) in data set [15] is 0.4 µM; in data set [17], 1.33 µM; in [18] it was 0.12 µM. In data set [5], the selectivity ratio was 22800.
